Measurements reported in patent US11584763B2, “Chromenopyridine derivatives as phosphatidylinositol phosphate kinase inhibitors” (HIBERCELL, INC., priority 2017, dated 2023).
pIC50: −log10 of the molar value.

Legend:
[1] = target: T1, PIP4K2B (Homo sapiens, UniProt P78356); test: Trans-FI P kinase assay PIP4K2B (PIP4KtypeIIB inhibition assay); type: biochemical; conditions: compounds listed under IC50 bin headings; 100 uM GTP; read-out: Trans-FI P kinase assays: PIP4K2B IC50
T1 construct: made in house; host or cells: E. coli
T1 sequence (P78356 1-416): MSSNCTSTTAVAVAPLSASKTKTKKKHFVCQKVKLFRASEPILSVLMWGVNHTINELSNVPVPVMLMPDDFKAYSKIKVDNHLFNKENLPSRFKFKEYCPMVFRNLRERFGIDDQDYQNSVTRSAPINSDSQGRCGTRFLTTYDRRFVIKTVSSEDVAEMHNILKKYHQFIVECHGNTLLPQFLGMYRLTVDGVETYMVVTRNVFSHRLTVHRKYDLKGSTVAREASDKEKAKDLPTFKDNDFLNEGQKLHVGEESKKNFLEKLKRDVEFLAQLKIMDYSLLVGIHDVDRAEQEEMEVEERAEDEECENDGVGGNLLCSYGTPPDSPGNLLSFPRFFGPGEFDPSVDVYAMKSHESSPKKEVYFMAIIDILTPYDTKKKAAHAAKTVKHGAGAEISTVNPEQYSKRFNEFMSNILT
From the text: GST tagged PIP4KtypeIIA and B enzymes were overexpressed in E. Coli and purified to >80% homogeneity. Phosphatidyl inositol-5-phosphate (PI5P, Cat. #850152, Avanti Polar Lipids Inc.) was used as the lipid substrate and phosphatidyl ethanolamine (DOPE 18:1, Cat. #850725, Avanti Polar Lipids Inc.) was used as the carrier lipid for assays. Ultrapure ATP and GTP was purchased from Bellbrooke Labs. ADP Glo reagents were obtained from Promega. Transcreener FI reagent was obtained from Bellbrooke labs.
GST-tagged PIP4KtypeIIB (3.4 uL, 2.77 mg/mL) was diluted to 5 mL using HNE buffer to yield 5× enzyme stock (25 nM)
Lipid Preparation: In a 10 mL pyrex glass vial, 1 ug of PI5P and 1 ug of DOPE were suspended in 2.5 mL of HEPES buffer mix and 2.5 mL of H:E buffer. The contents were mixed and sonicated for 3 min to yield a translucent lipid stock.
Compound Preparation: Compounds were stored as 5 mM stocks in neat DMSO as room temperature in glass vials. 5 mM stocks were diluted to 2 mM and then serially diluted (3×) in neat DMSO in 96 well polypropylene plates. From the serially diluted stocks, 3 uL was delivered into 250 uL of 25% DMSO (in water) to generate 5× compound stocks. Typically, the highest compound conc. was 24 uM.
The assay volume was kept at 25 uL. To each well of the reaction plate, 10 uL of lipid stock (1:1 ratio PI5P:DOPE) was delivered. This was followed by the addition of 5 uL of compound in 25% DMSO. Then, to each well, 5 uL of 25 nM (5×) typeIIB enzyme was delivered. The contents were mixed well and incubated for 1 h at 27 C. After 1 h, reaction was initiated by adding 5 uL of 500 uM GTP and the contents were mixed well with a multi-channel pipetteman. The final concentration of the reagents are as follows: 50 mM HEPES, pH 7.3, 10 mM MgCl2, 20 mM NaCl, 0.01% v/v triton-X100, 5% DMSO, 100 uM GTP, 80 uM (2 ug) PI5P, 2 ug DOPE, and 5 nM PIP4KIIB Typically, the highest conc. of compounds was 4.8 uM and the lowest conc. was 0.
After 2 h, the reaction was quenched by adding 25 uL of transcreener FI reagent. The contents were incubated at RT for 1 h and the Fluorescence (Ex: 584 Em: 623) was read using Molecular Devices Paradigm plate reader. […] The blanks were averaged and subtracted from all other wells. Using a calibration curve, RFU was converted to uM GDP (product). IC50 was calculated by plotting the residual activity (expressed as % No inhibitor control) vs. log [Inh. conc.]

[2] = target: T2, PIP4K 2A (Homo sapiens, UniProt P48426); test: ADP-glo kinase assay PIP4K 2A; type: biochemical; design: 4 nM PIP4K2A (full length protein, SignalChem); purchased SignalChem; conditions: compounds listed under IC50 bin headings
T2 sequence (P48426 1-406): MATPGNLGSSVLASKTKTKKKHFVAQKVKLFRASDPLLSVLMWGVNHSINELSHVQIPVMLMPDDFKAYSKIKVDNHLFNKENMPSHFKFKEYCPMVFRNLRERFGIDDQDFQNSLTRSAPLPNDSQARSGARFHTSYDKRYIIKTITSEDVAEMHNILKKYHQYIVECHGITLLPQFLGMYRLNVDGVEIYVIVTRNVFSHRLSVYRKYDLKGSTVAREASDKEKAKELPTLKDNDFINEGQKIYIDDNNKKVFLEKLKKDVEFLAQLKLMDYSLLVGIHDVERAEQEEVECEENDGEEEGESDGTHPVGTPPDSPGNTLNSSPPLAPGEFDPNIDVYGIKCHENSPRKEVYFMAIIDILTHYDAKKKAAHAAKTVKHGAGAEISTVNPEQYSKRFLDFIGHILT
Procedure: Dilution series of the compounds were prepared in DMSO at 100 times the final assay concentration (n1=n0/3 in 10 points). The compounds were further diluted to three times the assay concentration in assay buffer (20 mM MOPS pH 7.2, 25 mM magnesium chloride, 0.005% Tween 20). 6 μL of the diluted compounds were added to a 384 well assay plate followed by 9 μL of a mix consisting of 4 nM PIP4K2A (full length protein, SignalChem) and 100 μM PI(5)P diC8 (Tebu-Bio). Enzyme and compounds were pre-incubated at room temperature for 15 minutes.
Then 3 μL of a solution containing 60 μM ATP (Promega) in assay buffer was added to the wells containing compound and enzyme and mixing was performed by pipetting several times. The reaction was incubated at room temperature for 1 h. Then 18 μL of ADP-Glo™ Reagent (Promega) was added to stop the kinase reaction and deplete the unconsumed ATP, mixing was performed by pipetting several times. The plate was incubated at room temperature for 40 minutes before addition of 36 μL of Kinase Detection Reagent (Promega) to convert ADP to ATP and introduce luciferase and luciferin to detect ATP. The reaction was incubated at room temperature for 40 minutes before the luminescence was measured in a in a Victor 3V 1420 multilabel counter (Perkin Elmer).
Percent inhibition of the compounds as compared to dimethyl sulfoxide treated control samples was calculated. Compound concentration versus percent inhibition were fitted to generate IC50 values.

Row | Structure (SMILES) | pIC50 [1] | pIC50 [2]
1 | CC1Oc2cc(N3CCCC3=O)c(F)cc2-c2cnc(Nc3cnc4c(c3)N3C(=O)CC[C@@H]3CO4)cc21 (stereo partly drawn) [Example 181, (6aR)-2-((9-fluoro-5-methyl-8-(2-oxopyrrolidin-1-yl)-5H-chromeno[4,3-c]pyridin-3-yl)amino)-6,6a,7,8-tetrahydro-9H-pyrido[2,3-b]pyrrolo[1,2-d][1,4]oxazin-9-one] | 8.00 to 9.00 | 8.00 to 9.00
2 | CC1Oc2cc(N3CCCC3=O)ccc2-c2cnc(Nc3cncc(NC(=O)Cc4cnc5ccccn45)c3)cc21 (stereo not shown) [Example 145, 2-(imidazo[1,2-a]pyridin-3-yl)-N-(5-((5-methyl-8-(2-oxopyrrolidin-1-yl)-5H-chromeno[4,3-c]pyridin-3-yl)amino)pyridin-3-yl)acetamide] | 7.00 to 8.00 | 8.00 to 9.00
3 | CC1Oc2cc(N3CCCC3=O)ccc2-c2cnc(Nc3cncc(NC(=O)[C@H]4C[C@@H]4c4ccccc4)c3)cc21 (stereo partly drawn) [Example 111, (1S,2S)—N-(5-((5-methyl-8-(2-oxopyrrolidin-1-yl)-5H-chromeno[4,3-c]pyridin-3-yl)amino)pyridin-3-yl)-2-phenylcyclopropane-1-carboxamide] | 7.00 to 8.00 | 8.00 to 9.00
4 | CC1(C)Oc2cc(N3CCCC3=O)c(F)cc2-c2cnc(Nc3cnc4c(c3)N3C(=O)CC[C@@H]3CO4)cc21 [Example 184, (R)-2-((9-fluoro-5,5-dimethyl-8-(2-oxopyrrolidin-1-yl)-5H-chromeno[4,3-c]pyridin-3-yl)amino)-6,6a,7,8-tetrahydro-9H-pyrido[2,3-b]pyrrolo[1,2-d][1,4]oxazin-9-one] | 8.00 to 9.00 | ≥ 9.00
5 | CC1(C)Oc2cc(N3CCCC3=O)ccc2-c2cnc(Nc3cnc4c(c3)N3C(=O)CC[C@H]3CO4)nc21 [Example 189, (S)-2-((5,5-dimethyl-8-(2-oxopyrrolidin-1-yl)-5H-chromeno[3,4-d]pyrimidin-3-yl)amino)-6,6a,7,8-tetrahydro-9H-pyrido[2,3-b]pyrrolo[1,2-d][1,4]oxazin-9-one] | 8.00 to 9.00 | ≥ 9.00

Continued, values first:

Row | pIC50 [1] | pIC50 [2] | Structure (SMILES)
6 | 7.00 to 8.00 | 8.00 to 9.00 | CC1Oc2cc(N3CCCC3=O)ccc2-c2cnc(Nc3cncc(NC(=O)c4cc5ccccn5n4)c3)cc21 (stereo not shown) [Example 140, N-(5-((5-methyl-8-(2-oxopyrrolidin-1-yl)-5H-chromeno[4,3-c]pyridin-3-yl)amino)pyridin-3-yl)pyrazolo[1,5-a]pyridine-2-carboxamide]
7 | 8.00 to 9.00 | ≥ 9.00 | CC1Oc2cc(N3CCCC3=O)ccc2-c2cnc(Nc3cncc(NC(=O)c4cnc5ccccn45)c3)cc21 (stereo not shown) [Example 143, N-(5-((5-methyl-8-(2-oxopyrrolidin-1-yl)-5H-chromeno[4,3-c]pyridin-3-yl)amino)pyridin-3-yl)imidazo[1,2-a]pyridine-3-carboxamide]
8 | 8.00 to 9.00 | 8.00 to 9.00 | CC1Oc2cc(N3CCCC3=O)ccc2-c2cnc(Nc3cncc(NC(=O)c4cccc5[nH]ccc45)c3)cc21 (stereo not shown) [Example 123, N-(5-((5-methyl-8-(2-oxopyrrolidin-1-yl)-5H-chromeno[4,3-c]pyridin-3-yl)amino)pyridin-3-yl)-1H-indole-4-carboxamide]
9 | 7.00 to 8.00 | 7.00 to 8.00 | CC1Oc2cc(N3CCCC3=O)ccc2-c2cnc(Nc3cncc(NC(=O)c4ccc(F)cc4)c3)cc21 (stereo not shown) [Example 119, 4-fluoro-N-(5-((5-methyl-8-(2-oxopyrrolidin-1-yl)-5H-chromeno[4,3-c]pyridin-3-yl)amino)pyridin-3-yl)benzamide]
10 | 7.00 to 8.00 | 8.00 to 9.00 | COC(=O)Nc1cncc(Nc2cc3c(cn2)-c2ccc(N4CCCC4=O)cc2OC3C)c1 (stereo not shown) [Example 98, methyl (5-((5-methyl-8-(2-oxopyrrolidin-1-yl)-5H-chromeno[4,3-c]pyridin-3-yl)amino)pyridin-3-yl)carbamate]
11 | 7.00 to 8.00 | 8.00 to 9.00 | CC(CC(=O)Nc1cncc(Nc2cc3c(cn2)-c2ccc(N4CCCC4=O)cc2OC3C)c1)c1ccccc1 (stereo not shown) [Example 132, N-(5-((5-methyl-8-(2-oxopyrrolidin-1-yl)-5H-chromeno[4,3-c]pyridin-3-yl)amino)pyridin-3-yl)-3-phenylbutanamide]
